The record followed here is ChEMBL document CHEMBL1201862, “PubChem BioAssay data set” (2004).

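Cultured in 96-well plates, cells were exposed to test compound for 48 hours across five concentrations. Here, GI50 denotes the concentration required for 50% inhibition of growth.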 Activity calls are given as the source filed them. Rule as the data show it: active = GI50 up to about 1.1 µM and inactive = higher.

Some test systems named below: OVCAR-5; SNB-75; SF-295; UO-31; MOLT-4; UACC-62; LOX IMVI; CAKI-1; NCI-H23; SK-MEL-28; HOP-62; CCRF-CEM; OVCAR-3; SW-620; RXF 393; IGROV-1; COLO 205; M14; 786-0; NCI-H522.
Common to all, as to experiment: inhibition of tumour cell growth, NCI panel, 48 h

On to `CSc1nc2c(c(=O)[nH]1)N=C(c1ccccc1)CC(c1ccccc1)N2` (stereo not given), for which the GI50 in the test with OVCAR-5 was 31.3 µM (inactive); in the test with SNB-75, 11.7 µM (inactive); with SF-295, 34.7 µM (inactive); in the test on UO-31, 50.4 µM (inactive); with MOLT-4 it was 18.9 µM (inactive); in the test on UACC-62, 23.6 µM (inactive). Moreover, the GI50 is 24.8 µM (inactive) with LOX IMVI; 32.1 µM (inactive) with CAKI-1; 31.3 µM (inactive) in the test with NCI-H23; 50.6 µM (inactive) in the test on SK-MEL-28; 38.8 µM (inactive) with HOP-62; 26.1 µM (inactive) in the test with CCRF-CEM. For the same compound, the GI50 in the test with OVCAR-3 is 39 µM (inactive); in the test on SW-620, 50.8 µM (inactive); with RXF 393, 34.7 µM (inactive); in the test on IGROV-1, 23.4 µM (inactive); in the test with COLO 205, 41.7 µM (inactive); in the test with M14, 32.2 µM (inactive). Further, the GI50 in the test with 786-0 is 38.5 µM (inactive); with NCI-H522, 19.2 µM (inactive).

Turning to `CC(C)/C(Cl)=N\OC(=O)Nc1cccc(Cl)c1`, the GI50 with OVCAR-5 was 13.5 µM (inactive); in the test on SNB-75 it was 13.9 µM (inactive); in the test with SF-295, 36.1 µM (inactive); in the test with UO-31 it was 19.1 µM (inactive); with MOLT-4, 2.65 µM (inactive); in the test with UACC-62, 20.2 µM (inactive). Further, the GI50 with LOX IMVI is 3.72 µM (inactive); in the test with CAKI-1, 17.7 µM (inactive); in the test with NCI-H23 it was 15.2 µM (inactive); in the test on SK-MEL-28, 16.9 µM (inactive); in the test with HOP-62 it was > 46 µM (inactive); with CCRF-CEM it was 1.67 µM (inactive). For the same compound, the GI50 in the test on OVCAR-3 is 3.28 µM (inactive); with SW-620 it was 2.97 µM (inactive); in the test with RXF 393, 18.5 µM (inactive); in the test on IGROV-1, 18.6 µM (inactive); with COLO 205, 2.08 µM (inactive); in the test with M14 it was 0.305 µM (active). For the same compound, the GI50 is 15.7 µM (inactive) with 786-0 and 1.66 µM (inactive) in the test on NCI-H522.

With `CCOP(=O)(OCC)OC1c2[nH]ccc2-c2cc(C(=O)OC)[nH]c2C1OC` (stereo not given), the GI50 in the test on OVCAR-5 is > 100 µM (inactive); in the test on SNB-75 it was 89.3 µM (inactive); in the test on SF-295, > 100 µM (inactive); in the test with UO-31, 46.3 µM (inactive); in the test with MOLT-4 it was > 100 µM (inactive); in the test with UACC-62, 45.8 µM (inactive). The GI50 was > 100 µM (inactive) in the test with LOX IMVI; 70.3 µM (inactive) in the test with CAKI-1; > 100 µM (inactive) with NCI-H23; 82 µM (inactive) with SK-MEL-28; 87.3 µM (inactive) with HOP-62; > 100 µM (inactive) in the test on CCRF-CEM. Besides, the GI50 with OVCAR-3, in the test with SW-620, with RXF 393, in the test with IGROV-1, with COLO 205 and with M14 was > 100 µM (inactive) in each case. Moreover, the GI50 in the test on 786-0 and with NCI-H522 was > 100 µM (inactive) each time.

In the case of `CCSC1=N/C(=C/c2ccccc2O)C(=O)N1`, the GI50 is > 100 µM (inactive) in the test on OVCAR-5; 25.1 µM (inactive) with SNB-75; 91 µM (inactive) with SF-295; 38.5 µM (inactive) in the test with UO-31; > 100 µM (inactive) in the test with MOLT-4; > 100 µM (inactive) with UACC-62. For the same compound, the GI50 in the test with LOX IMVI is 52 µM (inactive); in the test with CAKI-1, > 100 µM (inactive); with NCI-H23, > 100 µM (inactive); in the test on SK-MEL-28, > 100 µM (inactive); with HOP-62 it was 41.1 µM (inactive); with CCRF-CEM, > 100 µM (inactive). Besides, the GI50 in the test on OVCAR-3 is > 100 µM (inactive); in the test with SW-620 it was > 100 µM (inactive); in the test on RXF 393 it was 26.4 µM (inactive); with IGROV-1, 87.3 µM (inactive); in the test on COLO 205, > 100 µM (inactive); with M14, > 100 µM (inactive). In addition, the GI50 with 786-0 is 28.5 µM (inactive); with NCI-H522 it was > 100 µM (inactive).

With `Cc1cc(=O)n(-c2c(C)cccc2Cl)c(/C=C(\O)c2ccncc2)n1`, the GI50 in the test on OVCAR-5 was 98.6 µM (inactive); in the test on SNB-75 it was 29.4 µM (inactive); in the test on SF-295, > 100 µM (inactive); in the test on UO-31, 35.3 µM (inactive); in the test on MOLT-4 it was > 100 µM (inactive); with UACC-62 it was > 100 µM (inactive). The GI50 with LOX IMVI, in the test with CAKI-1, in the test on NCI-H23, in the test with SK-MEL-28, with HOP-62 and with CCRF-CEM was > 100 µM (inactive) in each case. Also, the GI50 in the test on OVCAR-3, with SW-620, with RXF 393, in the test on IGROV-1, with COLO 205 and in the test on M14 was > 100 µM (inactive) each time. The GI50 in the test on 786-0 and with NCI-H522 was > 100 µM (inactive) in each case.

As to `CCC1(c2ccc(OC)c(OC)c2)CCN2C(=O)C(O)CC21` (stereo not given), the GI50 in the test on OVCAR-5, in the test on SNB-75, in the test with SF-295, in the test on UO-31, with MOLT-4 and in the test on UACC-62 was > 100 µM (inactive) each time. Also, the GI50 in the test with LOX IMVI, with CAKI-1, in the test with NCI-H23, in the test on SK-MEL-28, in the test on HOP-62 and in the test with CCRF-CEM was > 100 µM (inactive) throughout. The GI50 with OVCAR-3, with SW-620, in the test on RXF 393, with IGROV-1, in the test with COLO 205 and in the test with M14 was > 100 µM (inactive) in each case. Also, the GI50 with 786-0 and in the test on NCI-H522 was > 100 µM (inactive) each time.

`O=C1C(Cl)=C(Cl)C(=O)N1c1cccc(C(F)(F)F)c1`: the GI50 is > 100 µM (inactive) with OVCAR-5; > 100 µM (inactive) in the test on SNB-75; > 100 µM (inactive) in the test on SF-295; > 100 µM (inactive) in the test with UO-31; 51.4 µM (inactive) in the test with MOLT-4; > 100 µM (inactive) with UACC-62. In addition, the GI50 in the test on LOX IMVI was > 100 µM (inactive); with CAKI-1, > 61.9 µM (inactive); in the test on NCI-H23 it was > 100 µM (inactive); with SK-MEL-28 it was > 100 µM (inactive); in the test on HOP-62, > 100 µM (inactive); with CCRF-CEM it was > 51.9 µM (inactive). Besides, the GI50 in the test with OVCAR-3 was > 100 µM (inactive); with SW-620, > 100 µM (inactive); in the test on RXF 393, 34 µM (inactive); with IGROV-1, > 100 µM (inactive); with COLO 205, > 79.3 µM (inactive); with M14 it was > 100 µM (inactive). Besides, the GI50 with 786-0 is > 100 µM (inactive); in the test with NCI-H522 it was 12.1 µM (inactive).

With `[N-]=[N+]=C1C(=O)C2CC3CC(C2)CC1C3`, the GI50 in the test on OVCAR-5, in the test with SNB-75, with SF-295, in the test with UO-31, in the test with MOLT-4 and in the test with UACC-62 was > 100 µM (inactive) each time. In addition, the GI50 in the test with LOX IMVI, in the test with CAKI-1, in the test on NCI-H23, in the test with SK-MEL-28, in the test with HOP-62 and with CCRF-CEM was > 100 µM (inactive) throughout. The GI50 with OVCAR-3 was > 100 µM (inactive); with SW-620, 64 µM (inactive); in the test on RXF 393, > 100 µM (inactive); in the test with IGROV-1, > 100 µM (inactive); in the test on COLO 205, > 100 µM (inactive); in the test with M14 it was > 100 µM (inactive). The GI50 in the test on 786-0 and in the test on NCI-H522 was > 100 µM (inactive) in each case.

For the compound `C#CCOC(=O)C(N)CS` (stereo not given), the GI50 in the test on OVCAR-5, in the test on SNB-75, with SF-295, in the test on UO-31, in the test on MOLT-4 and in the test on UACC-62 was > 100 µM (inactive) in each case. In addition, the GI50 in the test with LOX IMVI, with CAKI-1, with NCI-H23, in the test on SK-MEL-28, in the test with HOP-62 and in the test with CCRF-CEM was > 100 µM (inactive) throughout. Also, the GI50 with OVCAR-3, with SW-620, in the test on RXF 393, in the test on IGROV-1, in the test on COLO 205 and in the test with M14 was > 100 µM (inactive) each time. Besides, the GI50 in the test with 786-0 and with NCI-H522 was > 100 µM (inactive) each time.

For `Cc1ccc2c(O)cc(-c3ccc(Cl)cc3)nc2n1`, the GI50 is > 39.3 µM (inactive) in the test with OVCAR-5; 8.24 µM (inactive) in the test on SNB-75; 4.59 µM (inactive) in the test on SF-295; 14.3 µM (inactive) in the test on UO-31; 1.2 µM (inactive) with MOLT-4; 5.15 µM (inactive) with UACC-62. Moreover, the GI50 in the test with LOX IMVI was 4.93 µM (inactive); in the test on CAKI-1, 5.57 µM (inactive); in the test with NCI-H23, 27.2 µM (inactive); in the test on SK-MEL-28, 9.66 µM (inactive); in the test on HOP-62, 9.16 µM (inactive); in the test with CCRF-CEM, 7.52 µM (inactive). Moreover, the GI50 in the test on OVCAR-3 was 3.1 µM (inactive); in the test with SW-620 it was 5.08 µM (inactive); with RXF 393, 27.2 µM (inactive); in the test with IGROV-1, 5.69 µM (inactive); in the test on COLO 205 it was 1.85 µM (inactive); in the test on M14 it was 7.48 µM (inactive). The GI50 with 786-0 is 5.38 µM (inactive); in the test on NCI-H522, 5.89 µM (inactive).
